Reference: US8796324B2, “Substituted 2-acetamido-5-aryl-1,2,4-triazolones and use thereof” (Bayer Intellectual Property GmbH, priority 2009, dated 2014)

Key:
human V1a receptor = biological target: T1, human V1a receptor (Homo sapiens, UniProt P37288); assay: Cellular in vitro assay for determining the vasopressin receptor activity (aequorin luminescence); format: cell-based; conditions: CHO cell line transfected with the human V1a receptor; agonist [Arg8]-vasopressin; read-out: IC50 hV1a
T1 construct: expressed in transfected cells; host or cells: CHO K1 (constitutively expressing modified aequorin)
T1 sequence (P37288 whole entry): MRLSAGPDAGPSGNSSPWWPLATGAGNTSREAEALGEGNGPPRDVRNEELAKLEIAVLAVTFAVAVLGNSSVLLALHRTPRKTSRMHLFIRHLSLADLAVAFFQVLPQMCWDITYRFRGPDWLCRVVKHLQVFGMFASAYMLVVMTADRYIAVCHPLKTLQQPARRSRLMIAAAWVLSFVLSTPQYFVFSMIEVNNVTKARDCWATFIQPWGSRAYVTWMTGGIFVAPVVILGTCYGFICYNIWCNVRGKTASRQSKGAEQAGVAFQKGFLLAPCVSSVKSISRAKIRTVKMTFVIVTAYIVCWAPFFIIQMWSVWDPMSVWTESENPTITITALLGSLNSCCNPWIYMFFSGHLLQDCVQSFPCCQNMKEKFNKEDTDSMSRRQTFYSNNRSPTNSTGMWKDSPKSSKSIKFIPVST
From the text: (§1) B-1. Cellular In Vitro Assay for Determining the Vasopressin Receptor Activity
(§2) The identification of agonists and antagonists of the V1a and V2 vasopressin receptors from humans and rats and also the quantification of the activity of the substances described here took place using recombinant cell lines. These cells derive originally from a hamster ovary epithelial cell (Chinese Hamster Ovary, CHO K1, ATCC: American Type Culture Collection, Manassas, Va. 20108, USA). The test cell lines constitutively express a modified form of the calcium-sensitive photoprotein aequorin, which, after reconstitution with the cofactor coelenterazine, emits light when there are increases in the free calcium concentration (Rizzuto R., Simpson A. W., Brini M., Pozzan T.; Nature 358 (1992) 325-327). In addition, the cells are stably transfected with the human or rat V1a or V2 receptors. In the case of the Gs-coupling V2 receptors, the cells are stably transfected with a further gene, which codes for the promiscuous Gα16 protein (Amatruda T. T., Steele D. A., Slepak V. Z., Simon M. I., Proc. Nat. Acad. Sci. USA 88 (1991), 5587-5591), either independently or as a fusion gene. The resulting vasopressin receptor test cells react to stimulation of the recombinantly expressed vasopressin receptors by intracellular release of calcium ions, which can be quantified by the resulting aequorin luminescence using a suitable luminometer (Milligan G., Marshall F., Rees S., Trends in Pharmaco. Sci. 17 (1996) 235-237).
(§3) On the day before the assay, the cells are plated out in culture medium (DMEM, 10% FCS, 2 mM glutamine, 10 mM HEPES) in 384-well microtiter plates and kept in a cell incubator (96% humidity, 5% v/v carbon dioxide, 37° C.). On the day of the assay, the culture medium is replaced by a Tyrode solution (140 mM sodium chloride, 5 mM potassium chloride, 1 mM magnesium chloride, 2 mM calcium chloride, 20 mM glucose, 20 mM HEPES), which additionally contains the cofactor coelenterazine (50 μM), and the microtiter plate is then incubated for a further 3-4 hours. The test substances in various concentrations are placed for 10 to 20 minutes in the wells of the microtiter plate before the agonist [Arg8]-vasopressin is added, and the resulting light signal is measured immediately in the luminometer. The IC50 values are calculated using the GraphPad PRISM computer program (Version 3.02).
(§4) The table below lists representative IC50 values for the compounds of the invention on the cell line transfected with the human V1a or V2 receptor: […]

human V2 receptor = biological target: T2, human V2 receptor (Homo sapiens, UniProt P30518); assay: as above; format: cell-based; conditions: CHO cell line transfected with the human V2 receptor (and Gα16); agonist [Arg8]-vasopressin; read-out: IC50 hV2
T2 construct: expressed in transfected cells; host or cells: CHO K1 (constitutively expressing modified aequorin; co-transfected with promiscuous G-alpha-16)
T2 sequence (P30518 whole entry): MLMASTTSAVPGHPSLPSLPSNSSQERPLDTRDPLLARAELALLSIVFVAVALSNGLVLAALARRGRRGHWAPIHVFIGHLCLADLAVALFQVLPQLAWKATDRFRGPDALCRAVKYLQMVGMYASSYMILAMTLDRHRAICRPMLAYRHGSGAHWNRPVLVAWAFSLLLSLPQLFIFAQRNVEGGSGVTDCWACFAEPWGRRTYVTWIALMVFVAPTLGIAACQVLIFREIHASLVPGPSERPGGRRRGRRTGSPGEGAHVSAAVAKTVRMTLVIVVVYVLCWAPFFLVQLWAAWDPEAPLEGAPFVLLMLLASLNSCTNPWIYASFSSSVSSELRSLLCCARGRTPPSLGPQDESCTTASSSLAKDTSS
From the text: as §1, §2, §3, §4

C[C@@](COC(N)=O)(NC(=O)Cn1nc(-c2ccc(Cl)cc2)n(C[C@H](O)C(F)(F)F)c1=O)c1cccc(C(F)(F)F)c1 [Example 45, (2R)-2-[({3-(4-Chlorophenyl)-5-oxo-4-[(2S)-3,3,3-trifluoro-2-hydroxypropyl]-4,5-dihydro-1H-1,2,4-triazol-1-yl}acetyl)amino]-2-[3-(trifluoromethyl)phenyl]propyl carbamate]
IC50 (human V1a receptor): 5.5 nM | IC50 (human V2 receptor): 2.5 nM

NC(=O)NCC(NC(=O)Cn1nc(-c2ccc(Cl)cc2)n(C[C@H](O)C(F)(F)F)c1=O)c1ccccc1C(F)(F)F (single isomer, unassigned) [Example 60]
IC50 (human V1a receptor): 0.5 nM | IC50 (human V2 receptor): 4.5 nM

O=C(Cn1nc(-c2ccc(Cl)cc2)n(C[C@H](O)C(F)(F)F)c1=O)N[C@@H](CCO)c1ccccc1C(F)(F)F [Example 69, 2-{3-(4-Chlorophenyl)-5-oxo-4-[(2S)-3,3,3-trifluoro-2-hydroxypropyl]-4,5-dihydro-1H-1,2,4-triazol-1-yl}-N-{(1S)-3-hydroxy-1-[2-(trifluoromethyl)phenyl]propyl}acetamide]
IC50 (human V1a receptor): 1.6 nM | IC50 (human V2 receptor): 9.7 nM

O=C(Cn1nc(-c2ccc(Cl)cc2)n(C[C@H](O)C(F)(F)F)c1=O)NC(c1ccccc1)C(O)C(F)(F)F (stereo partly drawn) [Example 94, 2-{3-(4-Chlorophenyl)-5-oxo-4-[(2S)-3,3,3-trifluoro-2-hydroxypropyl]-4,5-dihydro-1H-1,2,4-triazol-1-yl}-N-(3,3,3-trifluoro-2-hydroxy-1-phenylpropyl)acetamide]
IC50 (human V1a receptor): 251 nM | IC50 (human V2 receptor): 72.3 nM

NS(=O)(=O)OCC(NC(=O)Cn1nc(-c2ccc(Cl)cc2)n(C[C@H](O)C(F)(F)F)c1=O)c1cccc(C(F)(F)F)c1 (stereo partly drawn) [Example 159, 2-[({3-(4-Chlorophenyl)-5-oxo-4-[(2S)-3,3,3-trifluoro-2-hydroxypropyl]-4,5-dihydro-1H-1,2,4-triazol-1-yl}acetyl)amino]-2-[3-(trifluoromethyl)phenyl]ethyl sulphamate]
IC50 (human V1a receptor): 4.3 nM | IC50 (human V2 receptor): 1.8 nM

NC(=O)OCC(NC(=O)Cn1nc(-c2ccc(Cl)cc2)n(CCC(F)(F)F)c1=O)c1cccc(C(F)(F)F)c1 (single isomer, unassigned) [Example 112, 2-({[3-(4-Chlorophenyl)-5-oxo-4-(3,3,3-trifluoropropyl)-4,5-dihydro-1H-1,2,4-triazol-1-yl]acetyl}amino)-2-[3-(trifluoromethyl)phenyl]ethyl carbamate]
IC50 (human V1a receptor): 2.4 nM | IC50 (human V2 receptor): 6 nM

C[C@@](CO)(NC(=O)Cn1nc(-c2ccc(Cl)cc2)n(C[C@H](O)C(F)(F)F)c1=O)c1cccc(C(F)(F)F)c1 [Example 44, 2-{3-(4-Chlorophenyl)-5-oxo-4-[(2S)-3,3,3-trifluoro-2-hydroxypropyl]-4,5-dihydro-1H-1,2,4-triazol-1-yl}-N-{(2R)-1-hydroxy-2-[3-(trifluoromethyl)phenyl]propan-2-yl}acetamide]
IC50 (human V1a receptor): 44 nM | IC50 (human V2 receptor): 1.7 nM

O=C(Cn1nc(-c2ccc(Cl)cc2)n(C[C@H](O)C(F)(F)F)c1=O)NC(CN1CCNC1=O)c1cccc(C(F)(F)F)c1 (single isomer, unassigned) [Example 152]
IC50 (human V1a receptor): 2.2 nM | IC50 (human V2 receptor): 7.1 nM

Cc1csc(-c2nn(CC(=O)NC(CO)c3cccc(Cl)c3F)c(=O)n2CC(C)C)c1Cl (stereo not shown) [Example 172]
IC50 (human V1a receptor): 91 nM | IC50 (human V2 receptor): 136 nM

NC(=O)OCC(NC(=O)Cn1nc(-c2ccc(Cl)cc2)n(C[C@H](O)C(F)(F)F)c1=O)c1cccc(C(F)(F)F)c1 (single isomer, unassigned) [Example 48]
IC50 (human V1a receptor): 5.2 nM | IC50 (human V2 receptor): 4.4 nM

O=C(Cn1nc(-c2ccc(Cl)cc2)n(C[C@H](O)C(F)(F)F)c1=O)NC(CO)c1ccccc1C(F)(F)F (single isomer, unassigned; diastereomer i) [Example 39]
IC50 (human V1a receptor): 1.4 nM | IC50 (human V2 receptor): 7.8 nM

CN(C(=O)Cn1nc(-c2ccc(Cl)cc2)n(C[C@H](O)C(F)(F)F)c1=O)C(CO)c1cccc(C(F)(F)F)c1 (stereo partly drawn) [Example 163, 2-{3-(4-Chlorophenyl)-5-oxo-4-[(2S)-3,3,3-trifluoro-2-hydroxypropyl]-4,5-dihydro-1H-1,2,4-triazol-1-yl}-N-{2-hydroxy-1-[3-(trifluoromethyl)phenyl]ethyl}-N-methylacetamide]
IC50 (human V1a receptor): 594 nM | IC50 (human V2 receptor): 7.7 nM

O=C(Cn1nc(-c2ccc(Cl)cc2)n(C[C@H](O)C(F)(F)F)c1=O)NC(C[N+](=O)[O-])c1cccc(C(F)(F)F)c1 (single isomer, unassigned; diastereomer i) [Example 2]
IC50 (human V1a receptor): 7.6 nM | IC50 (human V2 receptor): 2.6 nM

CSCC(NC(=O)Cn1nc(-c2ccc(Cl)cc2)n(C[C@H](O)C(F)(F)F)c1=O)c1ccccc1C(F)(F)F (single isomer, unassigned) [Example 156]
IC50 (human V1a receptor): 1.9 nM | IC50 (human V2 receptor): 10 nM
